# Measurements reported in patent publication US6492124B1, “Trance activated signal transduction pathways in osteoclasts” (The Rockefeller University, priority 1999, dated 2002).
# Tests used:
# Format in all cases: cell-based, mouse
# mature osteoclasts = assay: Osteoclast survival assay (TRAP solution assay); details: 24 hours; TRANCE 5 μg/ml or CSF-1 10 ng/ml
# Method: TRAP solution assays were performed and percent survival calculated. The experiment was performed in triplicate and the mean values with positive standard deviations are shown. […] (E) Mature osteoclasts were washed extensively and then cultured for an additional 24 hr in media without (−) or with TRANCE (5 μg/ml; +) in the absence or presence of increasing doses (200 nM and 800 nM) of LY294002. TRAP solution assays were performed and percent survival was as described in Experimental Procedures. The experiment was performed in triplicate and the mean values with positive standard deviations are shown.
# Osteoclast survival assays. In vitro differentiated mature osteoclasts were washed 3 times in media then further cultured for 24 hr in media alone (control) or in media with TRANCE (5 μg/ml) or CSF-1 (10 ng/ml) in the presence or absence of LY294002 as indicated.
# Specific cell survival (%)=(A405, 24 hr−A405. background)*100/(A405, 0 hr−A405, background)
# JNK = JNK activation measured by its phosphorylation in osteoclasts and dendritic cells; details: TRANCE, data not shown
# Method: Cell stimulation, cell transfection and in vitro assays. In vitro differentiated mature dendritic cells, macrophages and osteoclasts were washed to remove exogenous growth factors, cultured in media with low serum (0.5% FCS, 6 hours), then stimulated by adding various cytokines in the presence or absence of inhibitors for various times as indicated. After stimulation, the cells were washed in ice-cold PBS, and subjected to Western blot analysis or immunoprecipitation as described below.
# For Western blotting, whole-cell extracts (20 μg of total protein), immunoprecipitates or kinase reactions were resolved on SDS-PAGE, electro-blotted to PVDF membranes (Immobilon-P, Millipore) according to standard methods (Maniatis, et al., Molecular Cloning: A Laboratory Manual (Cold Spring Harbor Laboratory, New York) 1989), probed with antibodies according to the manufacturer's protocol, and visualized using an immunodetection system. Stripping was performed by incubating the blots in stripping buffer (62.5 mM Tris pH 6.8, 2% SDS, 100 mM β-mercaptoethanol) for 30 min at 55° C.
# c-Src = c-Src immunoprecipitate in vitro kinase assay with SAM68 after TRANCE stimulation of cells
# Method: FIG. 3. c-Src is required for TRANCE-induced PKB activation and osteoclast survival. (A) c-Src was immunoprecipitated from osteoclasts, dendritic cells and macrophages stimulated with TRANCE (1 μg/ml) for the indicated times using an anti-c-Src-specific monoclonal antibody (327). PTK activity of the c-Src immunprecipitates were measured in vitro using SAM68, a PTK specific substrate. The degree of SAM68 phosphorylation was determined by Western blot analysis using an anti-phospho-tyrosine antibody (4G10) and densitometry. Note that c-Src kinase activity was not detectable in TRANCE-treated macrophages most likely due to low levels of c-Src in these cells (Lacey, et al., supra, 1998). (B) Osteoclasts derived from wild type and c-Src deficient mice were stimulated with TRANCE (5 μg/ml) for 10 min and the levels of phosphorylated PKB (PKB^P), total PKB, and total IκBα were determined as in FIG. 1. […] TRAP solution assays were performed and percent survival calculated. […] Osteoclasts were detected by TRAP solution assays. […]
# FIG. 5. […] PTK activity of the c-Src immunoprecipitates was measured by in vitro kinase assays using SAM68 as a PTK substrate. The degree of SAM68 phosphorylation (SAM68^P) was determined by Western blot analysis using a phospho-tyrosine specific antibody (4G10) followed by densitometry. […] The degree of SAM68 phosphorylation (SAM68^P) was determined as in (A). […]
substance,measurement,setting,value
TNF-related activation-induced cytokine [TRANCE],cytokine-promoted survival in c-Src−/− osteoclasts compared to wild-type,mature osteoclasts,reduced
same,JNK activation as measured by its phosphorylation,JNK,not detected
same,c-Src kinase activity,c-Src; TRANCE-treated macrophages,no detectable
same,induction of c-Src kinase activity,"c-Src; osteoclasts and dendritic cells, TRANCE 1 μg/ml",approximately 2 fold
